Source: patent US12485123B2, “1H-pyrazolo[4,3-d]pyrimidine compounds as toll-like receptor 7 (TLR7) agonists” (BRISTOL-MYERS SQUIBB COMPANY, priority 2020, dated 2025)
pEC50: −log10 of the molar value.

Test system: CD69
Experiment: Induction of CD69 in human whole blood
Format: cell-based
Details: 17 hrs incubation, CD69 surface staining, 100% set to 1 uM of resiquimod, average where assay repeated, read-out: hWB CD69 EC50
Procedure: Induction of Type I Interferon Genes (MX-1) and CD69 in Human Blood
The induction of Type I interferon (IFN) MX-1 genes and the B-cell activation marker CD69 are downstream events that occur upon activation of the TLR7 pathway. The following is a human whole blood assay that measures their induction in response to a TLR7 agonist.
Heparinized human whole blood was harvested from human subjects and treated with test TLR7 agonist compounds at 1 mM. The blood was diluted with RPMI 1640 media and Echo was used to predot 10 nL per well giving a final concentration of 1 uM (10 nL in 10 uL of blood). After mixing on a shaker for 30 sec, the plates were covered and placed in a 37° C. chamber for o/n=17 hrs. Fixing/lysis buffer was prepared (5×→1× in H2O, warm at 37° C.; Cat #BD 558049) and kept the perm buffer (on ice) for later use.
For surface markers staining (CD69): prepared surface Abs: 0.045 ul hCD14-FITC (ThermoFisher Cat #MHCD1401)+0.6 ul hCD19-ef450 (ThermoFisher Cat #48-0198-42)+1.5 ul hCD69-PE (cat #BD555531)+0.855 ul FACS buffer. Added 3 ul/well, spin 1000 rpm for 1 min and mixed on shaker for 30 sec, put on ice for 30 min. Stop stimulation after 30 minutes with 70 uL of prewarmed 1× fix/lysis buffer and use Feliex mate to resuspend (15 times, change tips for each plate) and incubate at 37 C for 10 minutes.
Centrifuge at 2000 rpm for 5 minutes aspirate with HCS plate washer, mix on shaker for 30 sec and then wash with 70 uL in dPBS and pelleted 2×s (2000 rpm for 5 min) and 50 ul wash in FACS buffer pelleted 1×s (2000 rpm for 5 min). Mix on shaker for 30 sec. For Intracellular markers staining (MX-1): Add 50 ul of BD Perm buffer III and mix on shaker for 30 sec. Incubate on ice for 30 minutes (in the dark). Wash with 50 uL of FACS buffer 2× (spin @2300 rpm×5 min after perm) followed by mixing on shaker for 30 sec. Resuspended in 20 ul of FACS buffer containing MX1 antibody ( )(4812)-Alexa 647: Novus Biologicals #NBP2-43704AF647) 20 ul FACS bf+0.8 ul hIgG+0.04 ul MX-1. Spin 1000 rpm for 1 min, mix on shaker for 30 se and the samples were incubated at RT in the dark for 45 minutes followed by washing 2×FACS buffer (spin @2300 rpm×5 min after perm). Resuspend 20 ul (35 uL total per well) of FACS buffer and cover with foil and place in 4° C. to read the following day. Plates were read on iQuePlus. The results were loaded into toolset and […] curves are generated in curve master. The y-axis 100% is set to 1 uM of resiquimod.

| Compound | pEC50 |
| --- | --- |
| CCC[C@@H](CCO)Nc1nc(N)nc2cnn(Cc3ccc(CNC4CCOCC4)c4cccnc34)c12 [Compound 104, (3S)-3-({5-amino-1-[(5-{[(oxan-4-yl)amino]methyl}quinolin-8-yl)methyl]-1H-pyrazolo[4,3-d]pyrimidin-7-yl}amino)hexan-1-ol] | 7.87 |
| CCC[C@@H](CCO)Nc1nc(N)nc2cnn(Cc3ccc(C(=O)N4CC5(CN(C)C5)C4)c4cccnc34)c12 [Compound 130, (3S)-3-({5-amino-1-[(5-{6-methyl-2,6-diazaspiro[3.3]heptane-2-carbonyl}quinolin-8-yl)methyl]-1H-pyrazolo[4,3-d]pyrimidin-7-yl}amino)hexan-1-ol] | 7.30 |
| CCC[C@@H](CCO)Nc1nc(N)nc2cnn(Cc3ccc(C(=O)N(C)C4CCOCC4)c4cccnc34)c12 [Compound 129, 8-[(5-amino-7-{[(3S)-1-hydroxyhexan-3-yl]amino}-1H-pyrazolo[4,3-d]pyrimidin-1-yl)methyl]-N-methyl-N-(oxan-4-yl)quinoline-5-carboxamide] | 7.08 |
| CCC[C@@H](CCO)Nc1nc(N)nc2cnn(Cc3ccc(C(=O)N4CC(CCO)C4)c4cccnc34)c12 [Compound 132, (3S)-3-{[5-amino-1-({5-[3-(2-hydroxyethyl)azetidine-1-carbonyl]quinolin-8-yl}methyl)-1H-pyrazolo[4,3-d]pyrimidin-7-yl]amino}hexan-1-ol] | 6.99 |
| CCC[C@@H](CCO)Nc1nc(N)nc2cnn(Cc3ccc(C(=O)N4CCN(CCOC)CC4)c4cccnc34)c12 [Compound 131, (3S)-3-{[5-amino-1-({5-[4-(2-methoxyethyl)piperazine-1-carbonyl]quinolin-8-yl}methyl)-1H-pyrazolo[4,3-d]pyrimidin-7-yl]amino}hexan-1-ol] | 7.04 |
